In patent US20250231185A1, “Coronavirus T Cell Epitopes, Megapools and Uses Thereof” (La Jolla Institute for Immunology, priority 2021, published 2025):

Test system: CD4+ T cells
Assay: Meta-analysis of published SARS-CoV-2 CD4 T cell epitope data curated in the IEDB (25 studies)
Format: cell-based, human
[1] = CD4R (D) Megapool, non-spike antigens, dominant = recognized in 3 or more donors/studies
[2] = CD4RE megapool peptides (non-spike SARS-CoV-2 CD4 epitopes), dominant = recognized by 3 or more donors/different studies

Substance	Dominant [1]	Dominant [2]
2315 (NKDGIIWVATEGALN) [compound 2315]	Yes (more dominant epitopes are defined by being recognized by 3 or more donors/different studies)	
2291 (CLVGLMWLSYFIASF) [compound 2291]	Yes (more dominant epitopes are defined by being recognized by 3 or more donors/different studies)	
2650 (AAEASKKPRQKRTAT) [compound 2650]		Yes (more dominant epitopes are defined by being recognized by 3 or more donors/different studies)
2292 (MWLSYFIASFRLFAR) [compound 2292]	Yes (more dominant epitopes are defined by being recognized by 3 or more donors/different studies)	
2643 (RWYFYYLGTGPEAGL) [compound 2643]		Yes (more dominant epitopes are defined by being recognized by 3 or more donors/different studies)
2288 (QFAYANRNRFLYIIK) [compound 2288]	Yes (more dominant epitopes are defined by being recognized by 3 or more donors/different studies)	
2655 (YKHWPQIAQFAPSAS) [compound 2655]		Yes (more dominant epitopes are defined by being recognized by 3 or more donors/different studies)
2295 (GAVILRGHLRIAGHHLGR) [compound 2295]	Yes (more dominant epitopes are defined by being recognized by 3 or more donors/different studies)	
2657 (ASAFFGMSRIGMEVT) [compound 2657]		Yes (more dominant epitopes are defined by being recognized by 3 or more donors/different studies)
2617 (QFAYANRNRFLYIIK) [compound 2617]		Yes (more dominant epitopes are defined by being recognized by 3 or more donors/different studies)
2652 (KRTATKAYNVTQAFG) [compound 2652]		Yes (more dominant epitopes are defined by being recognized by 3 or more donors/different studies)
2303 (SRTLSYYKLGASQRV) [compound 2303]	Yes (more dominant epitopes are defined by being recognized by 3 or more donors/different studies)	
2318 (AGNGGDAALALLLLD) [compound 2318]	Yes (more dominant epitopes are defined by being recognized by 3 or more donors/different studies)	
2325 (LIRQGTDYKHWPQIA) [compound 2325]	Yes (more dominant epitopes are defined by being recognized by 3 or more donors/different studies)	
2637 (ASWFTALTQHGKEDL) [compound 2637]		Yes (more dominant epitopes are defined by being recognized by 3 or more donors/different studies)
2300 (IKDLPKEITVATSRT) [compound 2300]	Yes (more dominant epitopes are defined by being recognized by 3 or more donors/different studies)	
2297 (RGHLRIAGHHLGRCD) [compound 2297]	Yes (more dominant epitopes are defined by being recognized by 3 or more donors/different studies)	
2622 (TNILLNVPLHGTILT) [compound 2622]		Yes (more dominant epitopes are defined by being recognized by 3 or more donors/different studies)
2662 (ILLNKHIDAYKTFPP) [compound 2662]		Yes (more dominant epitopes are defined by being recognized by 3 or more donors/different studies)
2661 (FKDQVILLNKHIDAY) [compound 2661]		Yes (more dominant epitopes are defined by being recognized by 3 or more donors/different studies)
2294 (SELVIGAVILRGHLR) [compound 2294]	Yes (more dominant epitopes are defined by being recognized by 3 or more donors/different studies)	
2651 (KKPRQKRTATKAYNV) [compound 2651]		Yes (more dominant epitopes are defined by being recognized by 3 or more donors/different studies)
2327 (WPQIAQFAPSASAFF) [compound 2327]	Yes (more dominant epitopes are defined by being recognized by 3 or more donors/different studies)	
2660 (GTWLTYTGAIKLDDK) [compound 2660]		Yes (more dominant epitopes are defined by being recognized by 3 or more donors/different studies)
2618 (VLAAVYRINWITGGI) [compound 2618]		Yes (more dominant epitopes are defined by being recognized by 3 or more donors/different studies)
2310 (DDQIGYYRRATRRIR) [compound 2310]	Yes (more dominant epitopes are defined by being recognized by 3 or more donors/different studies)	
2648 (DAALALLLLDRLNQL) [compound 2648]		Yes (more dominant epitopes are defined by being recognized by 3 or more donors/different studies)

Substance	Dominant [1]	Dominant [2]
2647 (AGNGGDAALALLLLD) [compound 2647]		Yes (more dominant epitopes are defined by being recognized by 3 or more donors/different studies)
2293 (TNILLNVPLHGTILT) [compound 2293]	Yes (more dominant epitopes are defined by being recognized by 3 or more donors/different studies)	
2309 (SWFTALTQHGKEDLK) [compound 2309]	Yes (more dominant epitopes are defined by being recognized by 3 or more donors/different studies)	
2636 (SGFAAYSRYRIGNYK) [compound 2636]		Yes (more dominant epitopes are defined by being recognized by 3 or more donors/different studies)
2635 (LGASQRVAGDSGFAA) [compound 2635]		Yes (more dominant epitopes are defined by being recognized by 3 or more donors/different studies)
2626 (RGHLRIAGHHLGRCD) [compound 2626]		Yes (more dominant epitopes are defined by being recognized by 3 or more donors/different studies)
2296 (LRGHLRIAGHHLGRC) [compound 2296]	Yes (more dominant epitopes are defined by being recognized by 3 or more donors/different studies)	
2332 (FKDQVILLNKHIDAY) [compound 2332]	Yes (more dominant epitopes are defined by being recognized by 3 or more donors/different studies)	
2627 (IAGHHLGRCDIKDLP) [compound 2627]		Yes (more dominant epitopes are defined by being recognized by 3 or more donors/different studies)
2287 (FYVYSRVKNLNSSRV) [compound 2287]	Yes (more dominant epitopes are defined by being recognized by 3 or more donors/different studies)	
2308 (ASWFTALTQHGKEDL) [compound 2308]	Yes (more dominant epitopes are defined by being recognized by 3 or more donors/different studies)	
2623 (SELVIGAVILRGHLR) [compound 2623]		Yes (more dominant epitopes are defined by being recognized by 3 or more donors/different studies)
2644 (NKDGIIWVATEGALN) [compound 2644]		Yes (more dominant epitopes are defined by being recognized by 3 or more donors/different studies)
2307 (SGFAAYSRYRIGNYK) [compound 2307]	Yes (more dominant epitopes are defined by being recognized by 3 or more donors/different studies)	
2290 (YRINWITGGIAIAMA) [compound 2290]	Yes (more dominant epitopes are defined by being recognized by 3 or more donors/different studies)	
2306 (LGASQRVAGDSGFAA) [compound 2306]	Yes (more dominant epitopes are defined by being recognized by 3 or more donors/different studies)	
2331 (GTWLTYTGAIKLDDK) [compound 2331]	Yes (more dominant epitopes are defined by being recognized by 3 or more donors/different studies)	
2620 (CLVGLMWLSYFIASF) [compound 2620]		Yes (more dominant epitopes are defined by being recognized by 3 or more donors/different studies)
2639 (DDQIGYYRRATRRIR) [compound 2639]		Yes (more dominant epitopes are defined by being recognized by 3 or more donors/different studies)
2654 (LIRQGTDYKHWPQIA) [compound 2654]		Yes (more dominant epitopes are defined by being recognized by 3 or more donors/different studies)
2631 (TSRTLSYYKLGASQRVA) [compound 2631]		Yes (more dominant epitopes are defined by being recognized by 3 or more donors/different studies)
2333 (ILLNKHIDAYKTFPP) [compound 2333]	Yes (more dominant epitopes are defined by being recognized by 3 or more donors/different studies)	
2323 (KRTATKAYNVTQAFG) [compound 2323]	Yes (more dominant epitopes are defined by being recognized by 3 or more donors/different studies)	
2328 (ASAFFGMSRIGMEVT) [compound 2328]	Yes (more dominant epitopes are defined by being recognized by 3 or more donors/different studies)	
2625 (LRGHLRIAGHHLGRC) [compound 2625]		Yes (more dominant epitopes are defined by being recognized by 3 or more donors/different studies)
2624 (GAVILRGHLRIAGHHLGR) [compound 2624]		Yes (more dominant epitopes are defined by being recognized by 3 or more donors/different studies)
